≈ marks a conversion by molar mass, not a printed value. Where “and” joins values, the source holds several entries; their conditions need not be identical. Identical values can stand only once. Entries after “also recorded” stand apart in the source; their conditions may differ. Like-named read-outs stand apart in the source and are kept apart here.
Columns and labels:
Mt-GuaB2 = Mt-GuaB2 (Mycobacterium tuberculosis, UniProt P9WKI7); assay: Mt-GuaB2 spectrophotometric assay (NADH formation at 340 nm), inhibitor kinetics; type: biochemical
Sequence of Mt-GuaB2 (P9WKI7 whole entry, looked up): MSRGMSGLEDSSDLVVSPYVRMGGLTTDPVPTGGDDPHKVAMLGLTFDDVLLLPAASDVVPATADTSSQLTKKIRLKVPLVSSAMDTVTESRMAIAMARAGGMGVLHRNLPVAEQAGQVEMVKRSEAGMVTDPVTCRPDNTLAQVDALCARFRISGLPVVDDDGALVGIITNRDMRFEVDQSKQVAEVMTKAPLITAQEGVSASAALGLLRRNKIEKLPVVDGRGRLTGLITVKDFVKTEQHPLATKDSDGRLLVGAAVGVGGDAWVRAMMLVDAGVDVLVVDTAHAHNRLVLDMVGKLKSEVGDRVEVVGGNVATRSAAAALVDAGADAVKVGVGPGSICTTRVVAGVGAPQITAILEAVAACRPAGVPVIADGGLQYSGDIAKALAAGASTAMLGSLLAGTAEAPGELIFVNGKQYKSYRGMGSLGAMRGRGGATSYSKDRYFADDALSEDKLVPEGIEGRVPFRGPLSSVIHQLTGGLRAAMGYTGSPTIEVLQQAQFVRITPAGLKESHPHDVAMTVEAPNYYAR

M. tuberculosis H37Rv = conditions: cited from earlier work
M. smegmatis mc^2 155 = assay: microbe, parasite or virus in culture; type: cell-based; conditions: for M. smeg MIC90: Table 2, highest concentration tested 128 µg/ml
[1] = system: M. tuberculosis Erdman strain; conditions: for Log 10 Protection, lung / Log 10 Protection, spleen: versus untreated controls d24, INH 25, 7759844 300 mg/kg/day
S. pyogenes IMPDH = conditions: ref [29], [34]; cited from earlier work
[2] = system: M. smegmatis overexpressing Mt-GuaB2; assay: microbe, parasite or virus in culture; type: cell-based
M. smegmatis = assay: bactericidal activity against M. smegmatis (colony counts after 24 hours exposure); type: cell-based; conditions: Mycolicibacterium smegmatis, at least 99% reduction of viable counts, read-out: minimum bactericidal concentration (MBC)
M. smegmatis pVV16 = assay: MIC of M. smegmatis with empty pVV16 vector control; type: cell-based; conditions: Mycolicibacterium smegmatis, Figure 4, vector alone control
[3] = acute maximum tolerated dose (MTD) test; conditions: single dose 100, 300, 500 mg/kg by gavage in 0.5% methyl cellulose, seven days observation, C57BL/6 mice
[4] = system: NC(=O)c1ccc[n+]([C@@H]2O[C@H](COP(=O)([O-])OP(=O)(O)OC[C@H]3O[C@@H](n4cnc5c(N)ncnc54)[C@H](O)[C@@H]3O)[C@@H](O)[C@H]2O)c1; assay: purified protein, by the assay type; conditions: other: variable substrate, fixed saturating co-substrate, 200 µl assay; pH 8.5; 37.0 °C
[5] = Table 2, varied IMP, fixed saturating NAD+ 2.8 mM
[6] = Table 2, Life Chemicals set, values without footnote a, previous screens ref [35]–[37]
[7] = Table 2, values with footnote a, ref Reynolds et al., 2011

Compound	IMP αK i (Mt-GuaB2; [5]) [µM]	M. tb MIC90 (M. tuberculosis H37Rv; [6]) [µg/mL]	M. smeg MIC90 (M. smegmatis mc^2 155; TSB agar, 37°C, 3 days) [µg/mL]	other results
O=C(Nc1nnc(-c2ccccc2Cl)o1)c1nc2ccccc2s1 [F1374-0033]	60.9	1.75	8	
COc1cc2ccccc2cc1C(=O)Nc1nnc(-c2ccc(F)cc2)o1 [F1374-0205]	35.3	5.59	>128	
COc1ccccc1-c1nnc(NC(=O)c2sc3ccccc3c2Cl)o1 [F1374-0253]	11.2	5.30	>128	pattern of inhibition with respect to IMP (Mt-GuaB2): uncompetitive inhibition; pattern of inhibition with respect to NAD+ (Mt-GuaB2): noncompetitive inhibition; pattern of inhibition with respect to NAD (Mt-GuaB2; Table 2): NC ((NC) Noncompetitive); Ki (Mt-GuaB2; Table 2, varied NAD+, fixed saturating IMP […], read-out: NAD K i): 435 µM
O=C(Nc1nnc(-c2ccccc2)o1)c1cc(-c2cccs2)nc2ccccc12 [F1374-0885]	19.0	0.72	2	
O=C(Nc1nnc(-c2cccs2)o1)c1nc2ccccc2s1 [F1374-0978]	28.3		>128	M. tb MIC90 (M. tuberculosis H37Rv; [7]): 2.98 ^a µg/ml
O=C(Nc1nnc(-c2ccc(Cl)s2)o1)c1nc2ccccc2s1 [F1374-1083]	4.86	4.81	>128	
CC(C)c1ccc(OCC(=O)Nc2nccs2)cc1 [F1685-0077]	229.3	6.88	>128	
CCOc1cc(-c2nnc(NC(=O)c3cc4ccccc4cc3OC)o2)cc(OCC)c1OCC [F2517-0198]	19.1	2.68	>128	
Cc1ccc(-c2nnc(NC(=O)c3nc4ccccc4s3)o2)c(C)c1 [F2518-0183]	57.1		>128	M. tb MIC90 (M. tuberculosis H37Rv; [7]): 1.76 ^a µg/ml
Cc1ccc(-c2nnc(NC(=O)COc3ccccc3)o2)c(C)c1 [F2518-0274]	765.4	5.50	20	
Cc1ccc(C)c(-c2nnc(NC(=O)c3cccc4ccccc34)o2)c1 [F2518-0386]	22.6			M. tb MIC90 (M. tuberculosis H37Rv; [7]): 0.41 µg/ml and 0.41 ^a µg/ml
Cc1ccc(C)c(-c2nnc(NC(=O)C3COc4ccccc4O3)o2)c1 (centres unmarked) [F2518-0401]	501.9	1.18	16	
COc1cc2ccccc2cc1C(=O)Nc1nnc(-c2cc(C)ccc2C)o1 [F2518-0413]	36.4	1.23	>128	
Cc1ccc(C)c(-c2nnc(NC(=O)COc3ccccc3)o2)c1 [F2518-0418]	328.7	2.24	32	
O=C(Nc1nnc(-c2ccc(Br)cc2)o1)c1sc2ccccc2c1Cl [F2518-0484]	35.5	6.70	3	
O=C(CS(=O)(=O)c1ccccc1)Nc1nc(-c2ccc3c(c2)CCCC3)cs1 [F2536-1573]	79.0	1.02	>128	
NNC(=O)c1ccncc1 [Isoniazid, isoniazid, reference compound]				Log 10 Protection, lung ([1]; 300 mg/kg/day): 2.7 log10 protection units; Log 10 Protection, lung ([1]; listed as INH, 300 mg/kg/day): 2.70 log10 protection units; Log 10 Protection, spleen ([1]; spleen, 300 mg/kg/day): 4.0 log10 protection units; Log 10 Protection, spleen ([1]; spleen, listed as INH, 300 mg/kg/day): 4.04 log10 protection units
NC(=O)c1ccc[n+]([C@@H]2O[C@H](COP(=O)([O-])OP(=O)(O)OC[C@H]3O[C@@H](n4cnc5c(N)ncnc54)[C@H](O)[C@@H]3O)[C@@H](O)[C@H]2O)c1 [NAD^+, nicotinamide adenine dinucleotide]				Km (S. pyogenes IMPDH): ~1180 µM
COc1ccc(OC(C)C(=O)Nc2ccc(I)cc2)cc1 (centres unmarked) [compound 7759844]				IMP αK i (Mt-GuaB2; Table 1, varied IMP, fixed saturating NAD+ 2.8 mM): 0.603 µM; IMP αK i (Mt-GuaB2; Table 3, analogs of lead scaffold): 0.603 µM; K i values (Mt-GuaB2; with respect to both substrates IMP and NAD+): nanomolar range; MIC99 ([2]; Mycolicibacterium smegmatis, Figure 4, Mt-GuaB2 overexpression construct in pVV16): 48 µg/mL (≈ 121 µM); increase in MIC of Mt-GuaB2 overexpressing strain ([2]; compared with pVV16 vector control and wild type M. smegmatis): 6 fold; M. tb MIC90 (M. tuberculosis H37Rv; Table 1, Chembridge compounds, M. tuberculosis H37Rv, previous screens ref [35]–[37]): 0.63 µg/mL; M. tb MIC90 (M. tuberculosis H37Rv; Table 3, analogs of lead scaffold, previous screens ref [35]–[37]): 0.633 µg/mL; MBC (M. smegmatis): 32 µg/mL (≈ 80.6 µM); MIC90 (M. smegmatis mc^2 155; Mycolicibacterium smegmatis, MC^2155, 72 h, Table 1, TSB agar, 37°C, 3 days, read-out: M. smeg MIC90): 8 µg/mL (≈ 20.1 µM); MIC99 (M. smegmatis mc^2 155; Mycolicibacterium smegmatis, MC^2155, Figure 4, M. smegmatis mc^2 155): 8 µg/mL (≈ 20.1 µM); Log 10 Protection, spleen ([1]; spleen): 0.84 log10 protection units; Activity ([1]; spleen, 300 mg/kg/day): slightly active; MIC99 (M. smegmatis pVV16): 8 µg/mL; tolerability, acute single dose [3]: no dose related adverse effects; also recorded: well tolerated with no acute adverse effects; also recorded: not toxic
Mt-GuaB2 (Mycobacterium tuberculosis H37Rv)				Km [4]: 699.4 ± 63.70 µM
